These results are taken from patent US9295638B2, “Prevention and treatment of cardiovascular diseases using systems and methods for transdermal nitric oxide delivery” (priority 2012, dated 2016).

Series [1] is described as follows: Nitric oxide absorption by carriers (weight gain on bubbling NO gas). As to conditions: NO gas bubbled 40 hr, 25 °C. The series is classed as physicochemical. The method, then: This example illustrates one technique for preparing a composition in accordance with one embodiment of the invention. An accurate amount of a carrier (HNC 167-62) (see below) was introduced into a system. The carrier weight used in these experiments was approximately 250 g and the vessel size was 500 ml. The vessel was equipped with a mechanical stirrer, gas inlet, and gas outlet and was previously purged with argon for about an hour. The temperature of the carrier was kept at about 25-30° C. NO gas regulated at 5 psi (1 psi is about 6,900 Pa) and was then introduced at a controlled rate of about 1 bubble/s with continuous stirring. […] After 6 hours, the weight of the carrier had increased by 0.15%, by 12 hours by 0.25%, and by 24 hours by 0.56%. These increases in weight were believed to be significant considering the relative small molecular weight of NO versus the carrier. […] The carrier also can solidify upon cooling if the carrier is initially a solid at lower temperature.
Each carrier was taken in a 500 mL three necked flask equipped with a mechanical stirrer, gas inlet and a gas outlet. The system was purged with argon for one hour at room temperature (25° C.). Then nitric oxide gas was bubbled into the system. Then, nitric oxide gas was bubbled through carrier for stipulated amount of time. The changes in weight and color were noted. […]

The test system of series [2] is micro-capillary blood flow to skin. As to the kind of experiment: Laser Doppler capillary blood flow in humans, 10,000 ppm NO in closed chamber (Example 6). The series is classed as in vivo. Particulars: applied to the skin at 1/10% in alcohol. The source says:
The formulation used in these studies contained nitric oxide dispersed in a lipid matrix. […] Nitric oxide is a very rapid acting molecule, and these studies used a system that employed laser Doppler with a covered chamber. The formulation was placed into the chamber and then attached to the skin by an adhesive layer on the covering. This provided a stable measuring device as determined by multiple normal evaluations of the capillary blood flow without treatment of nitric oxide.
A known positive control, methyl nicotinate, was applied to the skin at a concentration of 1/10% in alcohol. […] The vascular dynamics are such that when the blood vessels dilate physical parameters follow Bernoulli's law. This states that as one increases the diameter of a tube containing a liquid to flow will increase but the pressure and the speed of the liquid will decrease. The laser Doppler device accurately measured these parameters.
The test product was labeled as 10,000 ppm NO (nitric oxide). The study participants had 100 mg of the test product applied in a closed Hilltop chamber on the forearm. […]
A Moor Instruments DRT4 Laser Doppler Blood Flow Monitor (Devon, England) was used in these studies. The laser Doppler technique measured blood flow in the microcapillaries of the skin that are close to the skin surface and the blood flow in underlying arterioles and venules that help to regulate skin temperature. […]

Series [3] relates to capillary circulation of the skin. Put plainly: Laser Doppler circulation in five human subjects (Example 8). Particulars: positive control formulation containing 0.1% methyl nicotinate. The class given is in vivo. An excerpt:
This example illustrates delivery of nitric oxide formulations to five human subjects, using procedures and formulations similar to those discussed in Example 6. Each person served as their own control for the testing. A Moor Instruments Laser Doppler was used to determine circulation. […] The formulations used produce positive, almost immediate results when applied to the skin which, in these studies, was manifested by vasodilatation of the cutaneous vascular system.
For each subject, the following creams were applied: a negative control formulation (containing no NO), 0.010 gram of a 10,000 ppm NO formulation, 0.020 gram of a 10,000 ppm NO formulation, and a positive control formulation containing 0.1% methyl nicotinate. The formulations were prepared using procedures similar to those discussed in Example 1.

For `OCCCO` [1,3-Propanediol, 1,3-propanediol], in series [1], the “% Wt. gain” value came out at 0.09%. In the case of `COC(=O)c1cccnc1` [methyl nicotinate], the “laser Doppler response of positive control” value in series [2] is “rapid response typical of the vasodilator”. For the same compound, the vasodilatation entry in series [3] is “vasodilatation was observed”.
